Results reported in patent US20230323410A1, “BACTERIAL CELLS AND METHODS FOR PRODUCTION OF 2-FLUORO-CIS,CIS-MUCONATE” (priority 2020, published 2023).
“Also recorded” adds a separate entry of the source. Like-named read-outs stand apart in the source and are kept apart here.

Columns and labels:
Pmuc3 pSEVA228 = format: cell-based, Pseudomonas putida; settings: 30 mM glucose
P. putida KT2440 = settings: for Maximum growth rate μmax: 30 mM glucose
P. knackmussii = experiment: Microtiter plate cultivation: growth with metabolites of the bioconversion; settings: for Maximum growth rate μmax: 30 mM glucose
Pmuc10 = experiment: as above; settings: Example 6 (improved method); 30 mM glucose, 2.0 mM additive
XylS/Pm = format: cell-based, P. putida KT2440
CatR/Pcat = format: cell-based, P. putida KT2440; settings: 1.0 mM
BenR/Pben = format: cell-based, P. putida KT2440; settings: 1.0 mM
[1] = system: msfGFP reporter gene under control of BCD10; format: cell-based, P. putida KT2440; settings: 5 mM 3-FBz (inducible systems), 30 mM glucose, FIG. 6
[2] = Example 6 (improved method), 0.5 mM additive
[3] = Example 6 (improved method), 2.0 mM additive
[4] = Example 6 (improved method), 1.0 mM additive
[5] = Example 6 (improved method), 5.0 mM additive

| Compound | Maximum growth rate μmax (Pmuc3 pSEVA228; Example 1, 0.5 mM additive) | Maximum growth rate μmax (Pmuc3 pSEVA228; Example 1, 1.0 mM additive) | Maximum growth rate μmax (Pmuc3 pSEVA228; Example 1, 2.0 mM additive) | Maximum growth rate μmax (Pmuc3 pSEVA228; [2]) | Maximum growth rate μmax (Pmuc3 pSEVA228; [3]) | Maximum growth rate μmax (P. putida KT2440; Example 1, 0.5 mM additive) | Maximum growth rate μmax (P. putida KT2440; Example 1, 1.0 mM additive) | Maximum growth rate μmax (P. putida KT2440; Example 1, 2.0 mM additive) | Maximum growth rate μmax (P. putida KT2440; [2]) | Maximum growth rate μmax (P. putida KT2440; [4]) | Maximum growth rate μmax (P. putida KT2440; [3]) | Maximum growth rate μmax (P. putida KT2440; [5]) | Maximum growth rate μmax (P. knackmussii; Example 1, 0.5 mM additive) | Maximum growth rate μmax (P. knackmussii; Example 1, 1.0 mM additive) | Maximum growth rate μmax (P. knackmussii; Example 1, 2.0 mM additive) | Maximum growth rate μmax (P. knackmussii; [2]) | Maximum growth rate μmax (P. knackmussii; [4]) | Maximum growth rate μmax (P. knackmussii; [3]) | Maximum growth rate μmax (Pmuc3 pSEVA228; [4]) | further results |
| --- | --- | --- | --- | --- | --- | --- | --- | --- | --- | --- | --- | --- | --- | --- | --- | --- | --- | --- | --- | --- |
| Oc1cccc(F)c1O [Strain 3-FC, 3-fluorocatechol] | 0.61 h⁻¹ | 0.48 h⁻¹ | 0.22 h⁻¹ | 0.74 h⁻¹ | 0.22 h⁻¹ | 0.72 h⁻¹ | 0.65 h⁻¹ | 0.39 h⁻¹ | 0.71 h⁻¹ | 0.68 h⁻¹ | 0.36 h⁻¹ | no growth | 0.28 h⁻¹ | 0.17 h⁻¹ | 0.11 h⁻¹ | 0.32 h⁻¹ | 0.31 h⁻¹ | 0.12 h⁻¹ |  | Maximum growth rate μmax (Pmuc10): no growth |
| Cc1cccc(C(=O)O)c1 [Strain 3-mBz, 3-methyl benzoate, reference compound] |  |  |  |  |  |  |  |  |  |  |  |  |  |  |  |  |  |  |  | GFP expression under Pm(ML1-17) control relative to the expression provided by Pm (XylS/Pm; compound as inducer): 70%; induction by 1 mM as compared to 5 mM of the inducer (XylS/Pm; data not shown): 94%; response (CatR/Pcat): no response at all; increase in GFP expression over basal expression (BenR/Pben): No further increase |
| Oc1ccc(F)cc1O [Strain 4-FC, 4-fluorocatechol] | 0.55 h⁻¹ | 0.54 h⁻¹ | 0.35 h⁻¹ | 0.55 h⁻¹ | 0.28 h⁻¹ | 0.77 h⁻¹ | 0.64 h⁻¹ | 0.48 h⁻¹ | 0.72 h⁻¹ | 0.52 h⁻¹ | 0.34 h⁻¹ | no growth | 0.34 h⁻¹ | 0.32 h⁻¹ | 0.25 h⁻¹ | 0.31 h⁻¹ | 0.26 h⁻¹ | 0.17 h⁻¹ | 0.50 h⁻¹ |  |
| Oc1ccccc1O [catechol, pyrocatechol] |  |  | 0.86 h⁻¹ | 0.62 h⁻¹ | 0.81 h⁻¹ | 0.72 h⁻¹ | 0.77 h⁻¹ | 0.78 h⁻¹ | 0.69 h⁻¹ | 0.71 h⁻¹ | 0.68 h⁻¹ |  | 0.36 h⁻¹ | 0.33 h⁻¹ | 0.31 h⁻¹ | 0.36 h⁻¹ | 0.33 h⁻¹ | 0.29 h⁻¹ | 0.74 h⁻¹ | increase of μmax with increasing concentration (P. putida KT2440; Example 1, up to 2 mM): up to 30%; toxic effect (P. knackmussii; up to 2 mM): slightly toxic effect; also recorded: Only a little toxic effect |
| P14g: constitutive promoter, SEQ ID NO: 50 (DNA GCCCATTGACAAGGCTCTCGCGGCCAGGTATAATTGCACGA; expressed or natural sequence) [Strain P14g, reference compound] |  |  |  |  |  |  |  |  |  |  |  |  |  |  |  |  |  |  |  | transcription initiation rate: quotient of OD630 nm-normalized fluorescence with the one of Ptac [1]: 2.51 |
